Tests used:
[1] = system: Rat Chronic Constriction Injury Model; conditions: 0.02 mg/kg/day subcutaneously; vs. 45% for unloaded polymer depots; FIG. 3
From the text: (§1) A 2-month chronic constriction injury (CCI) model of neuropathic pain was used to evaluate different formulations of a clonidine, encapsulated in bioerodable polymers compared to clonidine given subcutaneously (SC).
(§2) The inventors evaluated the efficacy of a five Month Clonidine/Polymer Drug Depot in the Rat Chronic Constriction Injury Model. The animal model was the Bennett Model (Wistar rat). The purpose: To determine whether a five month polymer clonidine-eluting depot can improve pain associated behavioral responses in a rat model of neuropathic pain.
(§3) Experimental Design: Four loose chromic gut ligatures, 1 mm apart, were tied around the common sciatic nerve at mid-thigh. Each animal received treatment of test or control article-according to the dosing described in Table 5.
(§4) The inventors have conducted the present study for a period of 64 days and have employed the following two tests: (1) the Hargreaves test; and (2) the von Frey test. The Hargreaves Tests of Thermal Hyperalgesia were conducted on days 7, 14, 21, 28, 35, 42, 49, 56 and 63. The von Frey monofilament test of mechanical allodynia (performed the day following Thermal testing) were conducted on days-8, 15, 22, 29, 36, 43, 50, 57 and 64.

[2] = system: Rat Chronic Constriction Injury Model; conditions: 0.02 mg/kg/day subcutaneously; compared to unloaded polymer depots; FIG. 4
From the text: as §1, §2, §3, §4

Clc1cccc(Cl)c1N=C1NCCN1 [clonidine, 2,6-dichloro-N-2-imidazolidinyldenebenzenamine]
pain behavioral response (percentage of baseline), thermal hyperalgesia [1]: 58%
pain behavioral response (percentage of baseline), mechanical allodynia [2]: reduced the behavioral response

From US20090263451A1, “Anti-Inflammatory and/or Analgesic Agents for Treatment of Myofascial Pain” (Warsaw Orthopedic, Inc., priority 2008, published 2009)
